Experimental data taken from patent US20240398771A1, “TREATMENT OF SCLERODERMA AND RAYNAUD'S SYNDROME” (Aisa Pharma, Inc., priority 2023, published 2024).

Columns and labels:
participants with SSc-RP [1] = assay: Average duration of weekly RP attacks, all attacks (minutes); format: in vivo, human
Source text: The relevant metrics measured by this tool daily are: • Study medication • SSc-RP symptoms (Reporting an attack including duration of attack) • Severity of the attack considering all symptoms of the attack e.g. tingling, numbness, pain, color changes (VAS 0-10 cm scale) • Participant's location at the time of the attack (inside home/outside home) • Selecting symptoms experienced during the attack (tingling, numbness, pain, color changes, other) • Pain rating during the attack (11-point Likert scale) • The RCS based on how much difficulty participants had with Raynaud's today, how many attacks the participant had, and how long they lasted. Participants will also be asked to consider how much pain, numbness, or other symptoms the Raynaud's caused in fingers (including painful sores), and how much the Raynaud's alone affected the use of hands today (VAS 0-10 cm scale).
The absolute change in average duration of weekly RP attacks from baseline to the end of each dosing period was and will be a secondary outcome variable. The sponsor-developed participant-informed diary was and will be used to record data. Average duration of weekly RP attacks is defined as the total duration of RP attacks divided by total number of RP attacks within the last 7 days of each dosing period. Total duration of RP attacks during the last 7 days of screening period divided by the total number of RP attacks will be used as baseline for the analysis of all periods. The variable will be calculated similar to frequency data as before.

participants with SSc-RP [2] = assay: SHAQ Visual Analog Scale - Pain; format: in vivo, human; settings: Tadalafil 5 mg; Modified ITT, Part A
Protocol: Results: Patients in the study were administered the Scleroderma Health Assessment Questionnaire (SHAQ) at the time of study entry and during clinic visits following the treatment period. The study is a two-part, parallel arm design, prospective, double-blind, randomized study conducted in Australia (Flinders Medical Center). 27 patients were randomized into the first phase of the study, following which a DSMB meeting was held, which reviewed data on the primary study endpoint and key Raynaud's secondary endpoints. Data on the SHAQ was not available for the DSMB to review. The mITT population, in which any data was available post treatment was 24 patients was the analysis population for this first part of the study. The second part (i.e., part B) of the study will randomize 36 patients in a double blind, randomized, prospective, placebo controlled, crossover study. In the first part (i.e., Part A) of the study for which data is presented, patients were randomized into 6 groups, cilnidipine at two doses (10 and 20 mg) alone and in combination with tadalafil 5 mg, tadalafil 5 mg alone, and placebo. […] The DSMB recommended that the study proceed into its double blind prospective cross overpowered second phase and compare cilnidipine 20 mg alone to placebo. […] Cilnidipine treatment may reduce patient-reported SSc disease disability compared to placebo • b. Cilnidipine treatment may reduce patient-reported SSc disease alternative disability compared to placebo • c. Cilnidipine treatment may reduce patient-reported SSc disease pain* compared to placebo • d. Cilnidipine treatment may reduce patient-reported SSc disease severity compared to placebo • e. Cilnidipine treatment may reduce patient-reported SSc disease skin ulcer severity rating compared to placebo • f Cilnidipine treatment may reduce patient-reported SSc disease breathing difficulty compared to placebo • g. […] SSc disease pain comprises not only pain from Raynaud's but joint pain, headache, odynophagia, back pain, pain from skin ulceration, and neuropathic pain). Table E includes results of the Scleroderma Health Assessment Questionnaire.
Pain on the SHAQ outcome measure on the first line in table F is a composite of all pain experienced in patients with SSc, comprising joint pain, back pain, headache, odynophagia, skin ulcer related discomfort, Raynaud's, and neuropathic pain. Aisa Pharma believes, based on the biologic attributes and actions of cilnidipine that differ from most dihydropyridine calcium channel antagonists that cilnidipine might have direct analgesic effects in certain pain conditions and in fact has been designated to receive evaluation through the NIH-NINDS Preclinical Pain Screening Platform Program to investigate the drug in multiple in vitro and in vivo preclinical models of pain that are validated and predictive of effects in man.

[3] = Excluding Outliers, ITT Population - Part A (Table B-6), last 7 days of dosing period
[4] = Excluding Outliers, ITT Population - Part A (Table B-6), last 7 days of screening period
[5] = ITT Population - Part A (Table B-5), last 7 days of dosing period
[6] = ITT Population - Part A (Table B-5), last 7 days of screening period

Q: How did the “Average Duration of weekly RP attacks (All Attacks), Max” value (participants with SSc-RP [1]; [3]) turn out when CN1CC(=O)N2[C@H](c3ccc4c(c3)OCO4)c3[nH]c4ccccc4c3C[C@@H]2C1=O [Tadalafil] was run?
A: Its value is 5.9, 5.9 minutes.

Q: And the “Average Duration of weekly RP attacks (All Attacks), Min” value (participants with SSc-RP [1]; [3])?
A: Its value is 5.9, 5.9 minutes.

Q: And the “Average Duration of weekly RP attacks (All Attacks), Q1” value (participants with SSc-RP [1]; [3])?
A: Its value is 5.95, 5.95 minutes.

Q: And the “Average duration of weekly RP attacks (All Attacks), Change from Baseline, Max” value (participants with SSc-RP [1]; [3])?
A: The value was −5.0, −5.0 minutes.

Q: What about the “Average duration of weekly RP attacks (All Attacks), Change from Baseline, Min” value (participants with SSc-RP [1]; [3]) of the same compound?
A: Its value is −5.0, −5.0 minutes.

Q: And the “Average duration of weekly RP attacks (All Attacks), Percent Change from Baseline, Max” value (participants with SSc-RP [1]; [3])?
A: Its value is −45.6, −45.6%.

Q: What about the “Average duration of weekly RP attacks (All Attacks), Percent Change from Baseline, Min” value (participants with SSc-RP [1]; [3]) of the same compound?
A: The value was −45.6, −45.6%.

Q: What about the “Average duration of weekly RP attacks (All Attacks), Baseline, Max” value (participants with SSc-RP [1]; [4]) of the same compound?
A: The value was 10.9, 10.9 minutes.

Q: And the “Average duration of weekly RP attacks (All Attacks), Baseline, Min” value (participants with SSc-RP [1]; [4])?
A: Its value is 10.9, 10.9 minutes.

Q: What about the “Average duration of weekly RP attacks (All Attacks), Baseline, Q1” value (participants with SSc-RP [1]; [4]) of the same compound?
A: The value was 10.92, 10.92 minutes.

Q: What about the “Average duration of weekly RP attacks (All Attacks), Baseline, Q3” value (participants with SSc-RP [1]; [4]) of the same compound?
A: The value was 10.92, 10.92 minutes.

Q: What about the “Average Duration of weekly RP attacks (All Attacks)” value (participants with SSc-RP [1]; [5]) of the same compound?
A: The value was 5.9 min.

Q: What about the “Average Duration of weekly RP attacks (All Attacks), Max” value (participants with SSc-RP [1]; [5]) of the same compound?
A: Its value is 818.6 min.

Q: And the “Average Duration of weekly RP attacks (All Attacks), Q1” value (participants with SSc-RP [1]; [5])?
A: Its value is 5.95 min.

Q: What about the “Average Duration of weekly RP attacks (All Attacks), Q3” value (participants with SSc-RP [1]; [5]) of the same compound?
A: Its value is 818.57 min.

Q: What about the “Average duration of weekly RP attacks (All Attacks), Change from Baseline” value (participants with SSc-RP [1]; [5]) of the same compound?
A: Its value is -5.0 min.

Q: And the “Average duration of weekly RP attacks (All Attacks), Change from Baseline, Max” value (participants with SSc-RP [1]; [5])?
A: Its value is 188.6 min.

Q: What about the “Average duration of weekly RP attacks (All Attacks), Change from Baseline, Mean” value (participants with SSc-RP [1]; [5]) of the same compound?
A: The value was 91.80 min.

Q: And the “Average duration of weekly RP attacks (All Attacks), Change from Baseline, Median” value (participants with SSc-RP [1]; [5])?
A: Its value is 91.80 min.

Q: What about the “Average duration of weekly RP attacks (All Attacks), Change from Baseline, Q3” value (participants with SSc-RP [1]; [5]) of the same compound?
A: Its value is 188.57 min.

Q: What about the “Average duration of weekly RP attacks (All Attacks), Percent Change from Baseline, Max” value (participants with SSc-RP [1]; [5]) of the same compound?
A: Its value is 29.9%.

Q: What about the “Average duration of weekly RP attacks (All Attacks), Percent Change from Baseline, Mean” value (participants with SSc-RP [1]; [5]) of the same compound?
A: Its value is −7.81%.

Q: What about the “Average duration of weekly RP attacks (All Attacks), Percent Change from Baseline, Median” value (participants with SSc-RP [1]; [5]) of the same compound?
A: Its value is −7.81%.

Q: And the “Average duration of weekly RP attacks (All Attacks), Percent Change from Baseline, Min” value (participants with SSc-RP [1]; [5])?
A: Its value is −45.6%.

Q: What about the “Average duration of weekly RP attacks (All Attacks), Percent Change from Baseline, Q3” value (participants with SSc-RP [1]; [5]) of the same compound?
A: Its value is 29.93%.

Q: What about the “Average duration of weekly RP attacks (All Attacks), Baseline” value (participants with SSc-RP [1]; [6]) of the same compound?
A: The value was 10.9 min.

Q: What about the “Average duration of weekly RP attacks (All Attacks), Baseline, Max” value (participants with SSc-RP [1]; [6]) of the same compound?
A: The value was 630.0 min.

Q: And the “Average duration of weekly RP attacks (All Attacks), Baseline, Q1” value (participants with SSc-RP [1]; [6])?
A: Its value is 10.92 min.

Q: What about the “Average duration of weekly RP attacks (All Attacks), Baseline, Q3” value (participants with SSc-RP [1]; [6]) of the same compound?
A: The value was 630.00 min.

Q: And the “Visual Analog Scale-Pain, Baseline, Mean” value (participants with SSc-RP [2])?
A: Its value is 3.167.

Q: And the “Visual Analog Scale-Pain, Baseline, Median” value (participants with SSc-RP [2])?
A: Its value is 2.900.

Q: And the “Visual Analog Scale-Pain, Change from Baseline, Mean” value (participants with SSc-RP [2])?
A: The value was −0.300.

Q: And the “Visual Analog Scale-Pain, Change from Baseline, Median” value (participants with SSc-RP [2])?
A: Its value is −0.100.

Q: What about the “Visual Analog Scale-Pain, In Clinic Visit (Day 12), Mean” value (participants with SSc-RP [2]) of the same compound?
A: Its value is 2.700.

Q: And the “Visual Analog Scale-Pain, In Clinic Visit (Day 12), Median” value (participants with SSc-RP [2])?
A: Its value is 2.150.

Q: And the “Visual Analog Scale-Pain, Percent Change from Baseline, Mean” value (participants with SSc-RP [2])?
A: The value was −14.24%.

Q: And the “Visual Analog Scale-Pain, Percent Change from Baseline, Median” value (participants with SSc-RP [2])?
A: Its value is −4.55%.
